Measurements taken from patent US20140030201A1, “A SKIN LIGHTENING COMPOSITION” (priority 2010, published 2014).
“And” between values parts separate entries of the source, which are not always exact repeats. Identical values can stand only once. Like-named read-outs stand apart in the source and are kept apart here.

How the values were obtained:
[1] = test system: B16 F10 cells (mouse melanoma cell line); details: 3 days; for Average μg melanin/cell (4 tests): media control 0.00030445, DMSO control 0.00028774; for % vehicle control (melanin per cell): media control 100, DMSO control 94.51056836
Protocol: B16 F10 cells (mouse melanoma cell line) were obtained from ATCC and grown in Lonza Biowhittaker BE12-662F media. Trypsin in ethylenediaminetetraacetic acid (EDTA) (Sigma T3924) and Dulbecco's Phosphate Buffered Saline (DPBS) (Sigma D8537) were used to split the cells. Plates were set up at a concentration of 2.5×10^4 cells per well in 48 well plates in Phenol Red free media (Sigma D1145).
After overnight incubation, media was removed and media with sulforaphane (available from Sigma-Aldrich Company Limited as at least 95% L-sulforaphane) in DMSO and ketoconazole in DMSO solutions were added. 500 μl of the media and solutions were added to 4 wells of a 48 well plate and the plates incubated at 37° C. for a further 3 days. Thereafter the melanin concentration and cell numbers were measured.
Melanin concentration was measured by making up standards each day and pipetting 100 μl of each standard in duplicate onto Greiner plates. For the blank plate Phenol Red free media was used. 100 μl from each well was also pipetted in duplicate onto Greiner plates and the plates read on a Dynex plate reader at 450 nm.
Cell numbers were measured by washing the wells twice with phosphated buffer solution (PBS). Then 1 ml of trypsin EDTA diluted in PBS at 1:10 v/v was added to each well and the wells observed for cell detachment. All media from each well was then collected the media assayed by adding 100 μl of the media to 9.9 ml of Coulter Isoton II diluent. Cell numbers were assessed using the Z1 Coulter Particle Counter.

B16 mouse melanoma cells = test: Melanogenesis in B16 monolayer cultures (melanin normalised to total protein); type: cell-based; details: for Normalised melanin: 72 hours; for Inhibition of melanin production (in words): B16 monolayer cultures
Protocol: B16 mouse melanoma cells were cultured in Eagle's minimal essential medium (EMEM) supplemented with 10% foetal calf serum (FCS) and 2 mM L-glutamine at 37° C., 5% CO2 in T175 tissue culture flasks and were sub-cultured twice weekly using trypsin in EDTA. For assay, 25 000 cells per well in 500 μl volume were seeded to a 48 well plate and adhered overnight. The following morning standard culture media was replaced by EMEM, 10% FCS, 4 mM L-glutamine (500 μl) and test actives added. Cells were then incubated for 72 hours. At 72 after which the supernatants were removed and analysed for melanin content by spectrophometry at 450 nm against a reference standard curve. The B16 cell monolayer was dissolved in Triton™/PBS at 4° C. for 20 minutes, centrifuged at 13 000 rpm for 5 minutes at 4° C. and analysed for total protein content using a standard bicinchoninic acid assay (BCA) assay against a reference standard curve. Melanin results were normalised to total protein.
Each test active was applied in DMSO to n=3 cultures.

[2] = In-vitro delivery of ketoconazole into human skin (diffusion cells, tape stripping); type: in vitro ADME
Protocol: This study quantified the in-vitro human skin penetration after application of a cream formulation containing 2% (w/w) ketoconazole (Daktarin™ Gold). Eight diffusion cells were prepared (using female abdominal skin from three donors) plus three undosed control cells (for assay validation purposes). Epidermal membranes were used and integrity assessed by measuring electrical resistance. Permeation of active was measured over 24 hours following application of a target 5 mg/cm2 dose. Suitable liquid chromatography analytical assays were developed, with active peaks separated from formulation, skin and tape strip derived peaks.
Distribution within the skin at 24 hours was determined by measuring the levels of active within the stratum corneum (tape strips) and the epidermis plus any remaining lower stratum corneum (following tape stripping). The skin was wiped prior to tape stripping to remove active remaining at the surface. Levels in the donor chamber sealing grease and on the donor chambers were also measured (donor chamber wash).

[3] = test system: normal human melanocytes (NHM); test: Growth and morphology of normal human melanocytes in monolayer culture (light microscopy); type: cell-based; details: 1 μM
Protocol: Primary human melanocytes were obtained from Invitrogen Cascade Biologics (HEMn-DP) and grown in Cascade melanocyte media (M-254CF-500+human melanocyte growth supplement (HMGS) supplement containing phorbol myristate acetate (PMA)) according to the manufacturer's instructions. Once established, cultures were routinely grown in T175 tissue culture flasks and could generally be passaged for use up to six (P6) or seven (P7) times. Once the cells reached about 70% confluence they were treated with trypsin, spun down and re-suspended in an appropriate volume of media ready for plating out. Cells seeded at 2×10^5 cells per well in a 6-well plate and incubated in 2 ml medium per well. Cells were allowed 16 hours to settle on the cover-slips before addition of treatments. Cells were treated for 5 days with DMSO vehicle or test actives dissolved in DMSO and light microscope images captured.
NHMs grown in monolayer cultures were treated with 1 μM ketoconazole for 5 days and assessed by light microscopy.

[4] = test system: MelanoDerm™ cultures (pigmented 3D-Living Skin Equivalent model); test: Melanogenesis in MelanoDerm cultures (extracted melanin normalised to protein)
MelanoDerm™ cultures = test: Histological analysis of MelanoDerm cultures (Masson-Fontana staining, MART-1 immuno-staining); details: 1 μM, 14 days, versus DMSO control
B16 melanoma cells = details: cited from earlier work
[5] = cream with 2% (w/w) ketoconazole (Daktarin Gold), 5 mg/cm2, 24 hours, n = 8
[6] = stratum corneum tape strips, cream with 2% (w/w) ketoconazole, 5 mg/cm2, 24 hours, n = 8
[7] = 20 μM, individual cultures, second DMSO control 0.187, 0.188, 0.172

## C[S+]([O-])CCCCN=C=S [L-sulforaphane, sulforaphane]
[1]; 10 μM
  Average μg melanin/cell (4 tests): 0.0002645 μg melanin/cell
  % vehicle control (melanin per cell): 86.89 % vehicle control

## CC(=O)N1CCN(c2ccc(OC[C@H]3CO[C@](Cn4ccnc4)(c4ccc(Cl)cc4Cl)O3)cc2)CC1 (racemic) [ketoconazole]
B16 mouse melanoma cells; 5 μM, n=3 cultures, first DMSO control 0.186 ± 0.021
  Normalised melanin: 0.173 ± 0.032 μg/mg protein
B16 mouse melanoma cells; 20 μM, n=3 cultures, first DMSO control 0.186 ± 0.021
  Normalised melanin: 0.004 ± 0.001 μg/mg protein
B16 mouse melanoma cells; 50 μM, n=3 cultures, first DMSO control 0.186 ± 0.021
  Normalised melanin: 0.007 ± 0.003 μg/mg protein
B16 mouse melanoma cells; at 1 μM as printed
  Inhibition of melanin production (in words): very effectively inhibits melanin production
[2]; [5]
  Ketoconazole (% recovered), Donor chamber: 4.00 ± 1.26 % recovered
  Ketoconazole (% recovered), Overall recovery: 99.4 ± 1.2 % recovered
  Ketoconazole (% recovered), Permeation chamber: 3.49 ± 0.26 % recovered
  Ketoconazole (% recovered), Surface of skin: 83.6 ± 2.4 % recovered
[2]; cream with 2% (w/w) ketoconazole, 24 hours
  Delivery into human skin (in words): low but adequate delivery into human skin
[2]; includes any stratum corneum remaining after tape stripping, cream with 2% (w/w) ketoconazole, 5 mg/cm2, 24 hours, n = 8
  Ketoconazole (% recovered), Epidermis: 2.02 ± 0.74 % recovered
[2]; stratum corneum tape strip, cream with 2% (w/w) ketoconazole, 5 mg/cm2, 24 hours, n = 8
  Ketoconazole (% recovered), Strip 1: 4.92 ± 2.03 % recovered
[2]; [6]
  Ketoconazole (% recovered), Strips 2-3: 0.858 ± 0.255 % recovered
  Ketoconazole (% recovered), Strips 4-6: 0.318 ± 0.062 % recovered
  Ketoconazole (% recovered), Strips 7-10: 0.192 ± 0.046 % recovered
[3]
  Effect on viability of monolayer human melanocytes: no detectable effect on the viability
[3]; 5 days, light microscopy, FIG. 3
  Effect on NHM morphology or proliferation: no evidence that treatment had an adverse effect on NHM morphology or proliferation
[3]; 5 days, versus control, FIG. 3
  Proportion of bipolar cells (normal cells): practically identical to the control
[4]; 1 μM
  Effect on viability of epidermal cultures: no detectable effect on the viability
[4]; 1 μM, 14 days, individual cultures, DMSO control 74.560, 103.845, 90.333
  Normalised melanin: 58.573 μg/mg protein and 59.276 μg/mg protein and 57.292 μg/mg protein
[4]; 1 μM, 14 days, versus DMSO control
  Levels of extractable melanin (in words): consistently reduced the levels of extractable melanin
[4]; MelanoDerm cultures, at 1 μM
  Inhibition of melanin production (in words): very effectively inhibits melanin production
MelanoDerm™ cultures; FIG. 1
  Melanin content of the basal melanocytes, Masson-Fontana staining: marked effect on the melanin content of the basal melanocytes
MelanoDerm™ cultures; FIG. 2
  Presence of melanocytes, MART-1 immuno-staining: not due to the elimination of melanocytes
[1]; 1 μM
  Average μg melanin/cell (4 tests): 0.0002916 μg melanin/cell
  % vehicle control (melanin per cell): 95.76 % vehicle control

## c1c[nH]cn1 [imidazole]
B16 mouse melanoma cells; [7]
  Normalised melanin: 0.180 μg/mg protein and 0.231 μg/mg protein and 0.240 μg/mg protein
B16 mouse melanoma cells; other azoles
  Inhibition of melanin production (in words): did not effectively inhibit melanin production

## OC(Cn1cncn1)(Cn1cncn1)c1ccc(F)cc1F [flucoazole, fluconazole]
B16 mouse melanoma cells; [7]
  Normalised melanin: 0.232 μg/mg protein and 0.214 μg/mg protein and 0.229 μg/mg protein
B16 mouse melanoma cells; other azoles
  Inhibition of melanin production (in words): did not effectively inhibit melanin production

## c1cscn1 [thiazole]
B16 mouse melanoma cells; [7]
  Normalised melanin: 0.228 μg/mg protein and 0.255 μg/mg protein and 0.236 μg/mg protein
B16 mouse melanoma cells; other azoles
  Inhibition of melanin production (in words): did not effectively inhibit melanin production

## c1cocn1 [oxazole]
B16 mouse melanoma cells; [7]
  Normalised melanin: 0.217 μg/mg protein and 0.210 μg/mg protein and 0.185 μg/mg protein
B16 mouse melanoma cells; other azoles
  Inhibition of melanin production (in words): did not effectively inhibit melanin production

## Clc1ccc(COC(Cn2ccnc2)c2ccc(Cl)cc2Cl)c(Cl)c1 (centres unmarked) [miconazole]
B16 melanoma cells; accompanying the melanin decrease
  Cellular viability: decreased cellular viability
B16 melanoma cells; compared with untreated cells
  Melanin content: dose dependently decreased
  Tyrosinase activity: dose dependently decreased
